Measurements: patent publication US5387602A, “1.5-diphenyl-3-(N-hydroxycarbamoyloxyalkyl)pyrazoles” (Ortho Pharmaceutical Corporation, priority 1993, dated 1995)

Experiments:
[1] = target: T1, Sheep Seminal Vesicle Cyclooxygenase (Ovis aries, UniProt P05979); experiment: Procedure I: sheep seminal vesicle (SSV) cyclooxygenase inhibition; assay type: biochemical
T1 construct: purchased Biomol (Plymouth Meeting, Pa.); host or cells: sheep seminal vesicle
T1 sequence (P05979 25-600): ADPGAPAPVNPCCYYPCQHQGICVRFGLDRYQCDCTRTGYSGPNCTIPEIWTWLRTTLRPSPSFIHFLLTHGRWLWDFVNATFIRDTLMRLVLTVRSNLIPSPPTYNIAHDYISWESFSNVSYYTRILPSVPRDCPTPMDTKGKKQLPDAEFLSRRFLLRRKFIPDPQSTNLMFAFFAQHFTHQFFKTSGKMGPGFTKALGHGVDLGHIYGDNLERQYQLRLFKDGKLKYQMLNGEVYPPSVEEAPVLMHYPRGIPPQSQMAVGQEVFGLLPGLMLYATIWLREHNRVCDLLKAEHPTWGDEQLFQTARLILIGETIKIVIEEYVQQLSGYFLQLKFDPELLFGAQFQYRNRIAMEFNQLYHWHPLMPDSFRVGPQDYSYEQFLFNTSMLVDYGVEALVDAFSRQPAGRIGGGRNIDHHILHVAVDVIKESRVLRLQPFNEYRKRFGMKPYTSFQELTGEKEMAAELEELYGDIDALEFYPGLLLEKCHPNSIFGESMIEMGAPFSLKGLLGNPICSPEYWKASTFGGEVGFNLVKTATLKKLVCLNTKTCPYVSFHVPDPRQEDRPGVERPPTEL
Description: Sheep Seminal Vesicle Cyclooxygenase Sheep seminal vesicle (SSV) cyclooxygenase (95% pure, prostaglandin endoperoxide synthase, EC 1.14.99.1 specific activity 24 units/mg protein) obtained as a lyophilized powder from Biomol (Plymouth Meeting, Pa.) was reconstituted at a concentration of 59 mg/mL in Hanks' Balanced Salt Solution (HBSS). The enzyme was divided into 200 μL aliquots, snap frozen with liquid N2, and stored at -70° C. until immediately prior to use. Measurements of CO activity were carried out in polypropylene tubes containing 495 μL of HBSS to which was added 5 μL Of inhibitor or dimethylsulfoxide (DMSO; vehicle control) and 6 μL of SSV CO solution. The tubes were mixed on a vortex shaker, preincubated for 5 min at 37° C. prior to the initiation of the reaction. The reaction was started by the addition of [^14 C]-arachidonic acid (1-^14 C-AA, Amersham, Arlington Heights, Ill.) in 10 μL of methanol. Tubes were again vortexed and incubated in a water bath for 20 minutes after which the tubes were removed and the reaction stopped by acidification with the addition of 1 mL 2M formic acid. Lipophilic products were extracted with 3 mL chloroform and concentrated to dryness under N2. Each pellet was reconstituted with 40 μL of chloroform and spotted on a Whatman Silicon thin-layer chromatography plate and developed in a chromatography tank containing A-9 solvent (11:5:2:1 V:V:V:V, ethyl acetate:trimethyl-pentane:acetic acid:double distilled-H2 O). Radioactive cyclooxygenase products (prostaglandin D2, prostaglandin E2, etc.) were measured using a Bioscan System 200 Imaging Scanner. Inhibition of enzyme activity was calculated by comparing the areas under the curve produced in the presence or absence of test compound. In the following tables, the superscripts indicate the number of experiments and, unless otherwise stated, the dose at which % inhibition is reported is 3 MPK.

CO in intact RBL-1 cells = target: T2, CO in intact RBL-1 cells (Rattus norvegicus, UniProt Q63921); experiment: Procedure III: inhibition of CO in intact RBL-1 cells; assay type: cell-based
T2 construct: 5-LO and CO in intact RBL-1 cells; endogenous in cells; host or cells: RBL-1 (rat basophilic leukemia cells), intact
T2 sequence (Q63921 27-602): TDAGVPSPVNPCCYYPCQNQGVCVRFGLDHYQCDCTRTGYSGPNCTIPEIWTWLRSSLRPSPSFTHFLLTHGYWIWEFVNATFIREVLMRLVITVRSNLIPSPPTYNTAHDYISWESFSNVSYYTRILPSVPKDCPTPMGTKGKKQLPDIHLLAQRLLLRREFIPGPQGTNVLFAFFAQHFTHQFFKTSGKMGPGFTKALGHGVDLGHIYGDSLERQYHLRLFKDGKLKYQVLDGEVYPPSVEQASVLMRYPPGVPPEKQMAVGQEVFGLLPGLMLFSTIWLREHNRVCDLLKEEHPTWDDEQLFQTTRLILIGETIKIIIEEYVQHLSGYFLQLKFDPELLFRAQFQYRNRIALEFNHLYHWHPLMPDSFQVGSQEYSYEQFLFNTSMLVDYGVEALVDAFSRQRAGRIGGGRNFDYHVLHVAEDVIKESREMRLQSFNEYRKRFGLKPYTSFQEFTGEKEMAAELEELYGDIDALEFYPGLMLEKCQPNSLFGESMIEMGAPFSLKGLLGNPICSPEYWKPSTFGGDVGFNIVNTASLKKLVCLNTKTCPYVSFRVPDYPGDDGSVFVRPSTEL
Description: The ability to inhibit 5-LO and CO in intact RBL-1 cells was also evaluated. RBL-1 cells were maintained in culture in minimal essential medium (Bio*Whittaker, Walkersville, Md.), containing 12.5% fetal calf serum, 10 mg/mL streptomycin, 10 I.U./mL penicillin G, […] gentamycin and 2 mM L-glutamine (Bio*Whittaker, Walkersville, Md.). Cells were collected by centrifugation, washed once in HBSS, and resuspended at a concentration of 1×10^5 cells/mL. Cells were incubated in the presence of vehicle or drug then centrifuged at 800×g for 10 minutes at 4° C. The supernatant was removed by aspiration and the cells were resuspended in 0.5 mL of HBSS. The reaction was started by the addition of 20 μg/mL of calcium ionophore A-23187 (mixed calcium and magnesium salts, Calbiochem, La Jolla, Calif.) and allowed to proceed for 15 minutes, then stopped by plunging the tubes into a slush ice bath. The conversion of AA to 5-LO products was initiated by the addition of 10 μL (50 uCi) of 1-^14 C-AA. Products were isolated by acidification and extraction, followed by thin layer chromatography analysis as described above. Radioactive areas corresponding to authentic 5-LO and CO products were quantitated by the Bioscan 2000 Imaging System.
In the following tables, the superscripts indicate the number of experiments and, unless otherwise stated, the dose at which % inhibition is reported is 3 MPK.

COc1ccc(-n2nc(CCCOC(=O)N(O)C(C)C)c(Br)c2-c2ccc(Cl)cc2)cc1 [3-G]
IC50 ([1]; SSV CO): 14.1 µM
% INHIB. CO (Procedure I) ([1]; dose 3 MPK unless otherwise stated (so in the source)): 0%
IC50 (CO in intact RBL-1 cells): 7 µM
